Measurements from publication PMC4254627 (Bioorganic & medicinal chemistry letters, 2014).
Entries after “also recorded” stand apart in the source; their conditions may differ.

Key:
[1] = Stability; assay type: in vitro ADME, human; settings: 50% HP vs pH 7.4 buffer
[2] = Solubility / precipitation behaviour in pH 7.4 buffer; assay type: physicochemical

Compound	reduction of half-life in HP compared to pH 7.4 PBS buffer [1]	solubility in pH 7.4 buffer [2]
NCCC(=O)O[C@@H]1CC[C@@]2(O)[C@H]3Cc4ccc(O)c5c4[C@@]2(CCN3CC2CC2)[C@H]1O5 [Prodrug 6e]	approximately 5.4 fold	
CC(C)[C@H](N)C(=O)O[C@@H]1CC[C@@]2(O)[C@H]3Cc4ccc(O)c5c4[C@@]2(CCN3CC2CC2)[C@H]1O5 [Prodrug 6b]		precipitate
CCC(C)[C@H](N)C(=O)O[C@@H]1CC[C@@]2(O)[C@H]3Cc4ccc(O)c5c4[C@@]2(CCN3CC2CC2)[C@H]1O5 (stereo partly drawn) [Prodrug 6d]		highly insoluble; also recorded: precipitate
